In patent US4049898A (priority 1975, dated 1977):

Assays:
[1] = forms otherwise stable and appropriate; background statement; cited from earlier work
fungus organisms = conditions: background statement; cited from earlier work
physchem = conditions: water, pH 2, water

| Molecule | solubility in methanol at pH 9.5 (in words) | water solubility (background, in words) [1] | antifungal properties (fungus organisms) | development of resistant strains or forms (fungus organisms) | solubility (physchem) [µg/mL] | amount soluble in 750 ml of methanol (solubility in methanol; 750 ml methanol) [mg] | extent of solubilization in methanol (solubility in methanol; 100 mg added to 750 ml methanol) [%] | extent of solubility in methanol at pH 9.5 (solubility in methanol; 100 mg in 80 ml methanol, pH adjusted to 9.5 with triethylamine) [%] |
| --- | --- | --- | --- | --- | --- | --- | --- | --- |
| C[C@@H]1[C@H](O)[C@@H](C)/C=C/C=C/C=C/C=C/C=C/C=C/C=C/[C@H](O[C@@H]2O[C@H](C)[C@@H](O)[C@H](N)[C@@H]2O)C[C@@H]2O[C@](O)(C[C@@H](O)C[C@@H](O)[C@H](O)CC[C@@H](O)C[C@@H](O)CC(=O)O[C@H]1C)C[C@H](O)[C@H]2C(=O)O [amphotericin B] | completely soluble | lack of adequate water solubility | powerful antifungal properties | apparent inability of fungus organisms to develop readily any strains or forms that are resistant to amphotericin B | < 1000 | 100 | – | – |
| Amphotericin B-Calcium-Oxalic Acid Complex [Example 1] | – | – | – | – | – | – | 40 | 35 |
